# Data taken from publication PMC5332327 (Journal of the American Chemical Society, 2017).
# Biological target: Nan[KS1][AT1] (Streptomyces nanchangensis, UniProt Q7WTF5)
# Test: coupled KS-KR assay, chiral GC-MS of diketide methyl ester
# Format: biochemical
# Conditions: holo-NanACP1, NADPH, KR domain, pH 7.2
# Sequence of Nan[KS1][AT1] (Q7WTF5 1029-1965): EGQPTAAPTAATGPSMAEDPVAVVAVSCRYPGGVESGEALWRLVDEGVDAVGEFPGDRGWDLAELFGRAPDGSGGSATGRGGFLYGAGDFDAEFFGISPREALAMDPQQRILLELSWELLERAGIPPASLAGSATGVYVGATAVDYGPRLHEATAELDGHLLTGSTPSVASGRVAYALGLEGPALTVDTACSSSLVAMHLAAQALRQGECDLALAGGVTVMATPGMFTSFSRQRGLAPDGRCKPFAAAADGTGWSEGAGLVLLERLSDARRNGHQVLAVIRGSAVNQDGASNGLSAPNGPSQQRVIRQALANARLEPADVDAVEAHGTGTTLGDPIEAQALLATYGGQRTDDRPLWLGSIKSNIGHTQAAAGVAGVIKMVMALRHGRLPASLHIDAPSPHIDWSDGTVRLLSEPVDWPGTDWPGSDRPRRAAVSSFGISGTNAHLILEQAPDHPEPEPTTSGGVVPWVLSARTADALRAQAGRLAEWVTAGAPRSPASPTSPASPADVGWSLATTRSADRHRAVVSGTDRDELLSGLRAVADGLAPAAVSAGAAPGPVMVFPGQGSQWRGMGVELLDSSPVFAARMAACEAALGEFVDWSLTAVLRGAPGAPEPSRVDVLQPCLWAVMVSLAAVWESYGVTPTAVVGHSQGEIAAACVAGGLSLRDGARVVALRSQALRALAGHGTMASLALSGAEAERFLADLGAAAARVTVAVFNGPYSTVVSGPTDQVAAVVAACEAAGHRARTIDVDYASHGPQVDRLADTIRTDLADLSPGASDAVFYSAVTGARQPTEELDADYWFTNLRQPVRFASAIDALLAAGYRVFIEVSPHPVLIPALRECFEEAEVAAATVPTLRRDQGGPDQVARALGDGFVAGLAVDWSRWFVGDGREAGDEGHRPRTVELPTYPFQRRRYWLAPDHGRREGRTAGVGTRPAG
Compound,"coupled KS-KR assay, chiral GC-MS of diketide methyl ester (300 uM methylmalonyl-CoA, propionyl-SNAC, extender)","coupled KS-KR assay, chiral GC-MS of diketide methyl ester (5 mM propionyl-SNAC, methylmalonyl-CoA, primer)"
CC(C(=O)O)C(=O)SCCNC(=O)CCNC(=O)[C@H](O)C(C)(C)COP(=O)(O)OP(=O)(O)OC[C@H]1O[C@@H](n2cnc3c(N)ncnc32)[C@H](O)[C@@H]1OP(=O)(O)O (some centres unmarked) [methylmalonyl-CoA],condensation between propionyl-SNAC and methylmalonyl-CoA catalyzed by the polyether synthase didomain Nan[KS1][AT1],
CCC(=O)SCCNC(C)=O [propionyl-SNAC],,condensation between propionyl-SNAC and methylmalonyl-CoA catalyzed by the polyether synthase didomain Nan[KS1][AT1]
